{
  "source": "paper PMC9100673",
  "about": "“Acridine Based N-Acylhydrazone Derivatives as Potential Anticancer Agents: Synthesis, Characterization and ctDNA/HSA Spectroscopic Binding Properties” (Molecules, 2022)",
  "key": {"A549 cells": {"tested_on": "A549 cells", "experiment": "MTT assay, metabolic activity of A549 cells", "assay_type": "cell-based, human", "settings": "for pIC50: Homo sapiens", "description": "(§1) The effect of acridine-benzohydrazides (3a–3d) on the metabolic activity of the lung adenocarcinoma cell line (A549) and the normal colon fibroblast cell line (CCD-18Co) was evaluated using a 3-(4,5-dimethylthiazol-2-yl)-2,5-diphenyltertrazolium bromide (MTT) cell assay. This assay is based on the metabolization of yellow MTT to purple formazan crystal by mitochondrial dehydrogenases, and therefore only metabolic active cells are capable of that reaction. The CCD-18Co cell line was used as a control to check for derivatives selectivity. The doxorubicin belongs to a group of anthracyclines, which represent the chemotherapeutic regiments for the treatment of NSCLC (non-small cell lung carcinoma) even today, and acts as antineoplastic mainly by interaction with the DNA topoisomerase II and by creating DNA single- and double-strand breaks. Previous studies described detailed cytotoxic effects of doxorubicin in the human lung adenocarcinoma A549 cell line. Doxorubicin resembles our compounds in its biological action; therefore, it was employed as a positive control.\n(§2) Human lung carcinoma cell line A549 and CCD-18Co colon fibroblasts were purchased from the American Type Culture Collection (ATCC, Rockville, MD, USA). The A549 cells were cultured in a complete RPMI-1640 medium (Sigma-Aldrich, St. Louis, MO, USA) and CCD-18Co cells were cultured in a minimum essential medium (MEM) (PAN-Biotech GmbH, Aidenbach, Germany) at 37 °C, 95% humidity and 5% CO2. The media were supplemented with 10% fetal bovine serum (FBS, Biosera, Nuaille, France) and antibiotics (1% Antibiotic-Antimycotic 100 × and 50 × 10^−3 g L^−1 gentamicin, Biosera). Prior to the selected treatments, cells were seeded on 6- and/or 96-well plates (TPP, Trasadingen, Switzerland) and left to settle for 24 h. The acridine compounds solutions (at concentrations ranging from 5–75 µM) were then added to cells for 24 or 48 h, and analysis was subsequently performed.\n(§3) MTT assays were performed in order to evaluate changes in the metabolic activity of cells that had occurred as a consequence of treatment with the acridine compounds. A549 cells (15 × 10^3 cells/cm^2) and CCD-18Co (15.625 × 10^3 cells/cm^2) were seeded in 96-well microplates. The A549 cells were treated for 24 and 48 h, and the CCD-18Co cells were treated for 48 h with different concentrations (5, 25, 50 and 75 µM) of the derivatives. After the treatment, the MTT (3-(4,5-dimethylthiazol-2-yl)-2,5-diphenyltertrazolium bromide) solution in PBS (5 mg mL^−1) was added to each well. The reaction was stopped after 4 h incubation, and the formazan was dissolved by the addition of SDS at a final concentration of 3.3%. The absorbance of formazan (λ = 584 nm) was measured using a BMG FLUOstar Optima spectrometer (BMG Labtech GmbH, Offenburg, Germany). The results were evaluated as percentages of the absorbance of the untreated control. Results are presented as the average percentage of cells from three independent experiments. IC50 values for the derivatives were extrapolated from a sigmoidal fit (dose-response curve) to the metabolic activity data using OriginPro 8.5.0 SR1 (OriginLab Corp., Northampton, MA, USA)."}, "CCD-18Co cells": {"tested_on": "CCD-18Co cells", "experiment": "MTT assay, metabolic activity of CCD-18Co fibroblasts", "assay_type": "cell-based, human", "settings": "48 h", "description": "as §1, §2, §3"}},
  "note": "pIC50: −log10 of the molar value.",
  "data": [
    {"smiles": "COc1cccc2c1C(=O)c1c(O)c3c(c(O)c1C2=O)C[C@@](O)(C(=O)CO)C[C@@H]3O[C@H]1C[C@H](N)[C@H](O)[C@H](C)O1", "note": "[DOXO, doxorubicin, reference compound]", "values": [
      {"measurement": "effect on metabolic activity of A549 cells", "setting": "A549 cells; 24 h and 48 h, 5–75 μM tested", "value": "significantly decreased"},
      {"measurement": "pIC50", "setting": "A549 cells; A549, 24 h", "value": 4.25},
      {"measurement": "pIC50", "setting": "A549 cells; A549, 48 h", "value": 5.30},
      {"measurement": "effect on metabolic activity of CCD-18Co cells", "setting": "CCD-18Co cells; 5–75 μM tested", "value": "significantly decreased"},
      {"measurement": "pIC50", "setting": "CCD-18Co cells; Homo sapiens, CCD-18Co", "value": 5.30}
    ]},
    {"smiles": "O=C(N/N=C/c1ccc(Br)cc1)c1cccc2cc3ccccc3nc12", "note": "[7d, N′-[(E)-4-Bromophenylmethylidene]acridine-4-carbohydrazide]", "values": [
      {"measurement": "melting point", "value": "240 to 241", "unit": "°C"}
    ]},
    {"smiles": "O=C(N/N=C/c1ccc(Cl)cc1)c1cccc2cc3ccccc3nc12", "note": "[7c, N′-[(E)-4-Chlorophenylmethylidene]acridine-4-carbohydrazide]", "values": [
      {"measurement": "melting point", "value": "243 to 244", "unit": "°C"}
    ]},
    {"smiles": "O=C(N/N=C/c1ccc(F)cc1)c1cccc2cc3ccccc3nc12", "note": "[7b, N′-[(E)-4-Fluorophenylmethylidene]acridine-4-carbohydrazide]", "values": [
      {"measurement": "melting point", "value": "255 to 256", "unit": "°C"}
    ]}
  ]
}
